Source: patent publication US9814785B2, “Hepatitis C virus liposome vaccine” (Saitama Medical University, priority 2010, dated 2017)
Where a SMILES comes first, the peptide text is derived from it.

Legend:
[1] = system: RMA-HHD target cells pulsed with peptide; details: for CTL cytotoxicity to target cell presenting each peptide: immunogenicity of each peptide in each pool, FIG. 2; for CTL cytotoxicity to target cell presenting each peptide / induction of cytotoxic T cells: 51Cr release; for induction of cytotoxic T cells: peptide-bound liposome prepared from the single peptide, FIG. 3
[2] = system: T cells that produce interferon gamma (IFN-γ) antigen-specifically; assay: ELISPOT (IFN-γ) with splenocytes of immunized mouse; assay type: in vivo, HHD mouse; details: for IFN-γ production due to the stimulation with each peptide: immunogenicity of each peptide in each pool, FIG. 2
[3] = system: recombinant vaccinia virus that expresses HCV-NS3 gene (VV-NS3); parameters: species or system HHD mouse; details: mouse, in vivo
[4] = immunization with recombinant virus VV-NS3, ELISPOT, FIG. 7

| Compound | CTL cytotoxicity to target cell presenting each peptide [1] | induction of cytotoxic T cells [1] | IFN-γ production due to the stimulation with each peptide ([2]; ELISPOT) | vaccine effect of peptide-bound liposome prepared from single peptide [3] | also measured |
| --- | --- | --- | --- | --- | --- |
| CC[C@H](C)[C@H](NC(=O)[C@H](CS)NC(=O)[C@@H](NC(=O)[C@H](C)NC(=O)[C@H](CC(C)C)NC(=O)[C@@H](N)Cc1ccccc1)[C@@H](C)O)C(=O)N[C@@H](CC(N)=O)C(=O)NCC(=O)N[C@H](C(=O)O)C(C)C [compound 23, Phe Leu Ala Thr Cys Ile Asn Gly Val] (H-FLATCINGV-OH) | strongly induced antigen-specific CTL | confirmed | confirmed | – | – |
| CSCC[C@H](NC(=O)[C@@H](N)Cc1ccc(O)cc1)C(=O)N[C@@H](CC(N)=O)C(=O)N[C@H](C(=O)N1CCC[C@H]1C(=O)NCC(=O)N[C@@H](CC(C)C)C(=O)N1CCC[C@H]1C(=O)N[C@H](C(=O)O)C(C)C)[C@@H](C)O [peptide #3, Tyr Met Asn Thr Pro Gly Leu Pro Val] (H-YMNTPGLPV-OH) | strongly induced antigen-specific CTL | – | confirmed | remarkable vaccine effect | immunogenicity of liposome-bound peptide ([2]; F1 mouse (HHD male x C57BL/6 female) expressing HLA-A*0201 and H-2b, ELISPOT, FIG. 5): high immunogenicity of the same level as that of mouse epitope 1630-1637; boost effect on immunization with VV-NS3 [2, 4]: absent; immunogenicity of peptide on immunization with VV-NS3 [2, 4]: not exhibited; immunogenicity of peptide on immunization with whole NS3 ([2]; immunization with recombinant viruses Adex1CA3269 and VV-NS3, peptide not liposome-bound, FIG. 6): low immunogenicity and low; IFN-γ production ([2]; peptide-bound liposome prepared from the single peptide, ELISPOT, FIG. 3): particularly remarkable |
| cys Met Ser Ala Asp Leu Glu Val Val (CMSADLEVV; Hepatitis C virus) [compound 17] | strongly induced antigen-specific CTL | confirmed | confirmed | – | – |
| CC[C@H](C)[C@H](NC(=O)[C@H](CC(C)C)NC(=O)[C@H](CS)NC(=O)[C@H](CCCCN)NC(=O)[C@H](Cc1c[nH]c2ccccc12)NC(=O)[C@H](CCSC)NC(=O)[C@@H](N)CCC(N)=O)C(=O)N[C@@H](CCCNC(=N)N)C(=O)N[C@@H](CC(C)C)C(=O)O [compound 8, Gln Met Trp Lys Cys Leu Ile Arg Leu] | strongly induced antigen-specific CTL | – | – | – | – |
| CC[C@H](C)[C@H](N)C(=O)N[C@@H](CCSC)C(=O)N[C@H](C(=O)N[C@@H](CS)C(=O)N[C@@H](CCSC)C(=O)N[C@@H](CO)C(=O)N[C@@H](C)C(=O)N[C@@H](CC(=O)O)C(=O)N[C@@H](CC(C)C)C(=O)O)[C@@H](C)O [peptide #19, Ile Met Thr Cys Met Ser Ala Asp Leu] (H-IMTCMSADL-OH) | strongly induced antigen-specific CTL | – | confirmed | remarkable vaccine effect | – |
| CC[C@H](C)[C@H](NC(=O)[C@@H](NC(=O)[C@H](CO)NC(=O)[C@@H](NC(=O)[C@H](CC(=O)O)NC(=O)[C@H](CC(C)C)NC(=O)CN)C(C)C)C(C)C)C(=O)N1CCC[C@H]1C(=O)N[C@H](C(=O)O)[C@@H](C)O [compound 14, Gly Leu Asp Val Ser Val Ile Pro Thr] (H-GLDVSVIPT-OH) | strongly induced antigen-specific CTL | – | confirmed | – | – |
| IMACMSADL (Hepatitis C virus) [#19-3A] | – | – | – | – | vaccine effect, comparison of #19 and #19-3A bound to liposome ([1]; liposome inoculated twice, FIG. 11): higher vaccine effect |
| CSCC[C@H](NC(=O)CN)C(=O)N[C@@H](Cc1ccccc1)C(=O)N[C@@H](CC(=O)O)C(=O)N[C@@H](CO)C(=O)N[C@@H](CO)C(=O)N[C@H](C(=O)N[C@@H](CC(C)C)C(=O)N[C@@H](CS)C(=O)O)C(C)C [peptide #13, Gly Met Phe Asp Ser Ser Val Leu Cys] (H-GMFDSSVLC-OH) | strongly induced antigen-specific CTL | confirmed | confirmed | remarkable vaccine effect | – |
